# “And” between values parts separate entries of the source, which are not always exact repeats. Identical values can stand only once.
# How the values were obtained:
# [1] = test system: SARS-CoV-2; assay type: cell-based
# [2] = test system: SARS-CoV-2; assay: microbe, parasite or virus in culture; assay type: cell-based; details: Severe acute respiratory syndrome coronavirus 2, Vero C1008; Vero E6 cells, observed CPE, dose based on NIC content
# [3] = test system: MERS-CoV; assay: microbe, parasite or virus in culture; assay type: cell-based; details: Middle East respiratory syndrome-related coronavirus, Vero C1008, read-out: EC50 dose for MERS-CoV
# [4] = Particle size distribution by laser diffraction (dry powder and reconstituted suspension); details: after air jet milling (micronized)
# [5] = test system: methicillin-resistant S. aureus strain Mu50; assay: Resazurin-based microbroth dilution assay; assay type: cell-based; details: S. aureus Mu50, hLYS alone
# [6] = FTIR-ATR secondary structure analysis of hLYS; assay type: physicochemical
# [7] = Size exclusion chromatography of hLYS aggregation before and after spray drying and nebulization; assay type: physicochemical; details: not nebulized
compound,measurement,setting,value
"O=C(Nc1ccc([N+](=O)[O-])cc1Cl)c1cc(Cl)ccc1O [NIC-M, 5-Chloro-N-(2-chloro-4-nitrophenyl)salicylamide]",inhibitory activity against SARS-CoV-2 compared to solubilized NIC,"[1]; NIC dose of 0.125 μg/mL, quantified viral particles",significantly improved activity compared to solubilized NIC
same,EC50,[2],0.03 µg/mL
same,EC50,[3],0.016 µg/mL
"O=C(Nc1ccc([N+](=O)[O-])cc1Cl)c1cc(Cl)ccc1O [niclosamide, 5-Chloro-N-(2-chloro-4-nitrophenyl)salicylamide]",X50 diameter,[4],2.2 μm
same,X90 diameter,[4],4.2 μm and 4.1 μm
hLYS: recombinant human lysozyme (InVitria),inhibitory activity,[5],No inhibitory activity
same,activity against SARS-CoV-2,[1]; hLYS alone,appeared to exhibit activity against SARS-CoV-2
same,Anti-parallel β-sheet,[6]; 1618-1625 cm^−1,21.7%
same,Parallel β-sheet,[6]; 1633-1637 cm^−1,0.7%
same,α-helix,[6]; 1653 cm^−1,57.6%
same,Turns,[6]; 1678-1680 cm^−1,20.2%
same,Fragment,[7],0.7%
same,HMW,[7],17.2%
same,Monomer,[7],82.1%
